Experiments:
[1] = tested on: OVCAR-5; assay: Growth inhibition of human OVCAR5 cells after 48 hrs by SRB assay; format: functional; conditions: OVCAR-5, 48 h
[2] = Growth inhibition of human BSY1 cells after 48 hrs by SRB assay; format: functional; conditions: BSY-1, 48 h
[3] = tested on: NCI-H522; assay: Growth inhibition of human NCI-H522 cells after 48 hrs by SRB assay; format: functional; conditions: NCI-H522, 48 h
[4] = biological target: Protein kinase C delta type (Homo sapiens, UniProt Q05655); assay: Displacement of [3H]PDBu from PKCdelta C1B domain (unknown origin)
[5] = tested on: SF-539; assay: Growth inhibition of human SF539 cells after 48 hrs by SRB assay; format: functional; conditions: SF-539, 48 h
[6] = tested on: Raji; assay: Tumor-promoting activity against human Raji cells expressing EBV-EA at 10^-6 M after 48 hrs by indirect immunofluorescence assay relative to control; format: ADME, cell-based; conditions: 1 µM
[7] = tested on: SF-268; assay: Growth inhibition of human SF268 cells after 48 hrs by SRB assay; format: functional; conditions: SF-268, 48 h
[8] = tested on: Raji; assay: Tumor-promoting activity against human Raji cells expressing EBV-EA at 10^-7 M after 48 hrs by indirect immunofluorescence assay relative to control; format: ADME, cell-based; conditions: 0.1 µM
[9] = tested on: OVCAR-3; assay: Growth inhibition of human OVCAR3 cells after 48 hrs by SRB assay; format: functional; conditions: OVCAR-3, 48 h
[10] = biological target: Protein kinase C gamma type (Homo sapiens, UniProt P05129); assay: Displacement of [3H]PDBu from PKCgamma C1A domain (unknown origin)
[11] = tested on: MDA-MB-231; assay: Growth inhibition of human MDA-MB-231 cells after 48 hrs by SRB assay; format: functional; conditions: MDA-MB-231, 48 h
[12] = tested on: Mus musculus; assay: In vivo tumor-promoting activity in DMBA-treated ICR mouse assessed as increase in number of papillomas at 3.4 nmol administered twice per week measured at 11 to 20 weeks by two-stage carcinogenesis assay; format: ADME, organism-based
[13] = Growth inhibition of human RXF631L cells after 48 hrs by SRB assay; format: functional; conditions: RXF 631, 48 h
[14] = tested on: NCI-H226; assay: Growth inhibition of human NCI-H226 cells after 48 hrs by SRB assay; format: functional; conditions: NCI-H226, 48 h
[15] = tested on: HCT-116; assay: Growth inhibition of human HCT116 cells after 48 hrs by SRB assay; format: functional; conditions: HCT-116, 48 h
[16] = tested on: LOX IMVI; assay: Growth inhibition of human LOXIMVI cells after 48 hrs by SRB assay; format: functional
[17] = biological target: Protein kinase C theta type (Homo sapiens, UniProt Q04759); assay: Displacement of [3H]PDBu from PKCtheta C1B domain (unknown origin)
[18] = tested on: MKN-28; assay: Growth inhibition of human MKN28 cells after 48 hrs by SRB assay; format: functional; conditions: MKN-28, 48 h
[19] = tested on: St-4; assay: Growth inhibition of human St-4 cells after 48 hrs by SRB assay; format: functional; conditions: St-4, 48 h
[20] = tested on: MKN-74; assay: Growth inhibition of human MKN74 cells after 48 hrs by SRB assay; format: functional; conditions: MKN-74, 48 h
[21] = tested on: OVCAR-8; assay: Growth inhibition of human OVCAR8 cells after 48 hrs by SRB assay; format: functional; conditions: OVCAR-8, 48 h
[22] = tested on: U-251; assay: Growth inhibition of human U251 cells after 48 hrs by SRB assay; format: functional; conditions: U-251, 48 h
[23] = tested on: DMS-114; assay: Growth inhibition of human DMS114 cells after 48 hrs by SRB assay; format: functional; conditions: DMS-114, 48 h
[24] = biological target: Protein kinase C epsilon type (Homo sapiens, UniProt Q02156); assay: Displacement of [3H]PDBu from PKCepsilon C1B domain (unknown origin)
[25] = Growth inhibition of human HCC2998 cells after 48 hrs by SRB assay; format: functional; conditions: HCC 2998, 48 h
[26] = Cytotoxicity against human Raji cells assessed as cell viability at 10^-8 M relative to control; format: cell-based; conditions: read-out: Activity
[27] = tested on: SF-295; assay: Growth inhibition of human SF295 cells after 48 hrs by SRB assay; format: functional; conditions: SF-295, 48 h
[28] = tested on: DU-145; assay: Growth inhibition of human DU145 cells after 48 hrs by SRB assay; format: functional; conditions: DU-145, 48 h
[29] = tested on: Mus musculus; assay: In vivo tumor-promoting activity in DMBA-treated ICR mouse assessed as tumor bearing mouse at 3.4 nmol administered twice per week measured after 20 weeks by two-stage carcinogenesis assay relative to control; format: ADME, organism-based; conditions: 3360 h
[30] = tested on: MKN-45; assay: Growth inhibition of human MKN45 cells after 48 hrs by SRB assay; format: functional; conditions: MKN-45, 48 h
[31] = tested on: SNB-78; assay: Growth inhibition of human SNB-78 cells after 48 hrs by SRB assay; format: functional; conditions: SNB-78, 48 h
[32] = biological target: Protein kinase C beta type (Homo sapiens, UniProt P05771); assay: Displacement of [3H]PDBu from PKCbeta C1A domain (unknown origin)
[33] = Growth inhibition of human MKN1 cells after 48 hrs by SRB assay; format: functional; conditions: MKN-1, 48 h
[34] = Growth inhibition of human HBC5 cells after 48 hrs by SRB assay; format: functional; conditions: HBC5, 48 h
[35] = tested on: A549; assay: Growth inhibition of human A549 cells after 48 hrs by SRB assay; format: functional; conditions: A549, 48 h
[36] = tested on: OVCAR-4; assay: Growth inhibition of human OVCAR4 cells after 48 hrs by SRB assay; format: functional; conditions: OVCAR-4, 48 h
[37] = biological target: Protein kinase C alpha type (Homo sapiens, UniProt P17252); assay: Displacement of [3H]PDBu from PKCalpha C1A domain (unknown origin)
[38] = tested on: MKN-7; assay: Growth inhibition of human MKN7 cells after 48 hrs by SRB assay; format: functional; conditions: MKN-7, 48 h
[39] = tested on: NCI-H23; assay: Growth inhibition of human NCI-H23 cells after 48 hrs by SRB assay; format: functional; conditions: NCI-H23, 48 h
[40] = tested on: MCF7; assay: Growth inhibition of human MCF7 cells after 48 hrs by SRB assay; format: functional; conditions: MCF7, 48 h
[41] = tested on: Mus musculus; assay: In vivo tumor-promoting activity in DMBA-treated ICR mouse assessed as tumor bearing mouse at 1.7 nmol administered twice per week measured after 20 weeks by two-stage carcinogenesis assay relative to control; format: ADME, organism-based; conditions: 3360 h
[42] = tested on: Mus musculus; assay: In vivo tumor-promoting activity in DMBA-treated ICR mouse assessed as increase in number of papillomas at 1.7 nmol administered twice per week measured at 13 to 20 weeks by two-stage carcinogenesis assay; format: ADME, organism-based
[43] = Cytotoxicity against human Raji cells assessed as cell viability at 10^-7 M relative to control; format: cell-based; conditions: read-out: Activity
[44] = tested on: SK-OV-3; assay: Growth inhibition of human SKOV3 cells after 48 hrs by SRB assay; format: functional; conditions: SK-OV-3, 48 h
[45] = tested on: NCI-H460; assay: Growth inhibition of human NCI-H460 cells after 48 hrs by SRB assay; format: functional; conditions: NCI-H460, 48 h
[46] = tested on: KM12; assay: Growth inhibition of human KM12 cells after 48 hrs by SRB assay; format: functional; conditions: KM12, 48 h
[47] = tested on: PC-3; assay: Growth inhibition of human PC3 cells after 48 hrs by SRB assay; format: functional; conditions: PC-3, 48 h
[48] = tested on: Raji; assay: Tumor-promoting activity against human Raji cells expressing EBV-EA at 10^-8 M after 48 hrs by indirect immunofluorescence assay relative to control; format: ADME, cell-based; conditions: 0.01 µM
[49] = tested on: SNB-75; assay: Growth inhibition of human SNB75 cells after 48 hrs by SRB assay; format: functional; conditions: SNB-75, 48 h
[50] = tested on: HT-29; assay: Growth inhibition of human HT-29 cells after 48 hrs by SRB assay; format: functional; conditions: HT-29, 48 h
[51] = Cytotoxicity against human Raji cells assessed as cell viability at 10^-6 M relative to control; format: cell-based; conditions: read-out: Activity
[52] = biological target: Protein kinase C eta type (Homo sapiens, UniProt P24723); assay: Displacement of [3H]PDBu from PKCeta C1B domain (unknown origin)
[53] = tested on: HCT-15; assay: Growth inhibition of human HCT15 cells after 48 hrs by SRB assay; format: functional; conditions: HCT-15, 48 h
[54] = tested on: DMS-273; assay: Growth inhibition of human DMS273 cells after 48 hrs by SRB assay; format: functional; conditions: DMS-273, 48 h
[55] = Growth inhibition of human HBC4 cells after 48 hrs by SRB assay; format: functional; conditions: HBC4, 48 h
[56] = tested on: ACHN; assay: Growth inhibition of human ACHN cells after 48 hrs by SRB assay; format: functional

Protein kinase C delta type, sequence (Q05655 whole entry, the tested form may be a part): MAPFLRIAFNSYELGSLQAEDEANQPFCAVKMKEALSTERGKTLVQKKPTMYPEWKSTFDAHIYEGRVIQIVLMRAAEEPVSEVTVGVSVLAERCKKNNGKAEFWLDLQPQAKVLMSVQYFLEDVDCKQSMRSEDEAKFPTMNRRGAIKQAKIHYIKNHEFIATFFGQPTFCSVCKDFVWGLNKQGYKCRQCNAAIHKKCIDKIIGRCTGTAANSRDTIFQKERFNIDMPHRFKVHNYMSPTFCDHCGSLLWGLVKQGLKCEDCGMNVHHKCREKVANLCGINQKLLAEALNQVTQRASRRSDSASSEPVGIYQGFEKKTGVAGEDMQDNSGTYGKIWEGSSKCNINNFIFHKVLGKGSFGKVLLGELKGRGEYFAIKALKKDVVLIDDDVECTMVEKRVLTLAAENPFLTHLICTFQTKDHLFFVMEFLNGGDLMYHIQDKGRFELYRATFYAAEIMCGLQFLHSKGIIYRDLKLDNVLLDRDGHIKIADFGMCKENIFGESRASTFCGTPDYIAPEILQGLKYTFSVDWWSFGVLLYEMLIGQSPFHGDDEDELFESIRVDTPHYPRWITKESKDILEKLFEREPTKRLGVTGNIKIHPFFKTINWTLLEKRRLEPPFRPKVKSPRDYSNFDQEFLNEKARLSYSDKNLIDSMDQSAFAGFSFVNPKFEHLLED
Protein kinase C eta type, sequence (P24723 whole entry, the tested form may be a part): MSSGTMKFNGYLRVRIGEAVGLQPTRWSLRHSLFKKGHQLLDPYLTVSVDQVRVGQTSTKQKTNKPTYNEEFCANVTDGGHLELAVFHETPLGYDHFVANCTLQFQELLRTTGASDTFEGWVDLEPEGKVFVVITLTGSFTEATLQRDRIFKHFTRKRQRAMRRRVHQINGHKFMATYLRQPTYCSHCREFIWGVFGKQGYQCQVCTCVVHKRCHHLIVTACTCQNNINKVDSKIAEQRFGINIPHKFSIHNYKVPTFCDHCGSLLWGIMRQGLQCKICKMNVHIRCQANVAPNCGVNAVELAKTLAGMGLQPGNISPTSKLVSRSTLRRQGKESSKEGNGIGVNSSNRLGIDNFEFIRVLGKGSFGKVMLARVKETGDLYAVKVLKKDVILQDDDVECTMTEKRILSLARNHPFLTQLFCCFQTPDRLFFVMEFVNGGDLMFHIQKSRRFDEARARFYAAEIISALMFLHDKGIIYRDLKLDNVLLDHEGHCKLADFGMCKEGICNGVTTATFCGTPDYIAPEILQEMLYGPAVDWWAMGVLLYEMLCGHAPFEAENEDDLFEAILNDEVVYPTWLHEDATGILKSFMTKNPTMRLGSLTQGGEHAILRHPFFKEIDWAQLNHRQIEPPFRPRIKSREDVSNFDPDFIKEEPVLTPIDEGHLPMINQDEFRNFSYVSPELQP
Protein kinase C theta type, sequence (Q04759 whole entry, the tested form may be a part): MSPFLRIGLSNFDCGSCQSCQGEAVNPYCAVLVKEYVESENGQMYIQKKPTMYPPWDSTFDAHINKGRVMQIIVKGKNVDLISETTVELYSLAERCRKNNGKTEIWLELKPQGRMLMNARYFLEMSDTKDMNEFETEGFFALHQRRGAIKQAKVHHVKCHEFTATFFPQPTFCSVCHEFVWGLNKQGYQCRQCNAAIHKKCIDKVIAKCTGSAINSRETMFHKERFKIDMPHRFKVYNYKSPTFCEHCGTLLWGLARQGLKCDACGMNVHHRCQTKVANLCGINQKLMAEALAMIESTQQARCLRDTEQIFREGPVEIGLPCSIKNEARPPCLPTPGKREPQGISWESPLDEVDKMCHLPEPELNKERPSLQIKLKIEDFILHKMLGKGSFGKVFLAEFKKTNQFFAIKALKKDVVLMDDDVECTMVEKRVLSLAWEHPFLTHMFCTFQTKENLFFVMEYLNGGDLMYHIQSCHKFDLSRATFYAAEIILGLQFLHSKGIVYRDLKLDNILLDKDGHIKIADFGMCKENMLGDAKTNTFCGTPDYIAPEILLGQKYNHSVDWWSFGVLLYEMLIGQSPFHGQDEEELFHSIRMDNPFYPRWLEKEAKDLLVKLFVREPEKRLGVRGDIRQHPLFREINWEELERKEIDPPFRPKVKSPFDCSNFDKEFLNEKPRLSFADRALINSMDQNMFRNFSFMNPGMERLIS
Protein kinase C epsilon type, sequence (Q02156 whole entry, the tested form may be a part): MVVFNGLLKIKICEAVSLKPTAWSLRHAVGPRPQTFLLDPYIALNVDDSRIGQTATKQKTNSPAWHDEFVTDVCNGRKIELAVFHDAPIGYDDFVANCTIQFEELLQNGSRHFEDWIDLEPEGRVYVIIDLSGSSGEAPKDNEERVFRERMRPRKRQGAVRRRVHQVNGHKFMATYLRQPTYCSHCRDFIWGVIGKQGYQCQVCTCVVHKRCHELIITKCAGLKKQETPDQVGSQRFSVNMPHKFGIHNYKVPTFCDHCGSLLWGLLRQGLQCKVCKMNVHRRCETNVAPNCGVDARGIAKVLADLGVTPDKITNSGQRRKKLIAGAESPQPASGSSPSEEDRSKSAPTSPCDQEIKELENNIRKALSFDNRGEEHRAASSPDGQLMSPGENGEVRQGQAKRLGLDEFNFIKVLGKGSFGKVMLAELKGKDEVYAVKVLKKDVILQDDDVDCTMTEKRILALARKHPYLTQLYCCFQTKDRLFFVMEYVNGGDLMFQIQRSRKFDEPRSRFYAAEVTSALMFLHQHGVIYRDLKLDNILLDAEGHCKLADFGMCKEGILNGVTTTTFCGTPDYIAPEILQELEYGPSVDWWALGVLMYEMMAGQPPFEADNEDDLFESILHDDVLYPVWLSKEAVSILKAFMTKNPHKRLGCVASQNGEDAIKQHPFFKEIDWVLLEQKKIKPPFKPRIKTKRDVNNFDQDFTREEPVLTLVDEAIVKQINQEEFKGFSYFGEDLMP
Protein kinase C beta type, sequence (P05771 whole entry, the tested form may be a part): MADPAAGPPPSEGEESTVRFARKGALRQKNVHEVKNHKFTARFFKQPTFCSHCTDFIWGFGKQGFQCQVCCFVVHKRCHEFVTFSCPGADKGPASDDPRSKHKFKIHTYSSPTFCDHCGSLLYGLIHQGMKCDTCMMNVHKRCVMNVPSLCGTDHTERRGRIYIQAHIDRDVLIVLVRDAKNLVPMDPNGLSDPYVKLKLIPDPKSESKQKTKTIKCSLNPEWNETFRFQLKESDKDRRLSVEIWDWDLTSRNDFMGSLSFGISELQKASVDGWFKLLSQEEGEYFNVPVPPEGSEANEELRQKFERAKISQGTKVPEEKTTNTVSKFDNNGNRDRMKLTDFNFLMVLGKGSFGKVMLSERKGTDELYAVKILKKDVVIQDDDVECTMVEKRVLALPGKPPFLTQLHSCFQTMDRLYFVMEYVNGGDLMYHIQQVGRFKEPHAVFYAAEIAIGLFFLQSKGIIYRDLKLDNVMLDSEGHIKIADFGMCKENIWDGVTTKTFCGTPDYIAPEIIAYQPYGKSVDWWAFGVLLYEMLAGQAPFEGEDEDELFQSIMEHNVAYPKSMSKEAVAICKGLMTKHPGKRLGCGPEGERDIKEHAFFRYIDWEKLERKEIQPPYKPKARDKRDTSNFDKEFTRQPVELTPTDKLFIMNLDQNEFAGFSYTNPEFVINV

C[C@@H]1[C@@H]([C@@H](C)CCCc2cccc(O)c2)O[C@@]23C[C@@H]1OC(=O)C[C@H]([C@@H](C)O)OC(=O)C[C@](O)(O2)[C@H](C)CC3(C)C [DEMETHOXYDEBROMOAPLYSIATOXIN]
GI50 [1]: 4.9 µM
GI50 [2]: 6.17 µM
GI50 [3]: 4.79 µM
Ki [4]: 0.00032 µM
GI50 [5]: 11.5 µM
Activity [6]: 18.6%
GI50 [7]: 13.2 µM
Activity [8]: 17.9%
GI50 [9]: 8.13 µM
Ki [10]: 0.00069 µM
GI50 [11]: 0.049 µM
Activity [12]: Toxic
GI50 [13]: 15.1 µM
GI50 [14]: 0.0525 µM
GI50 [15]: 8.71 µM
GI50 [16]: 1.62 µM
Ki [17]: 0.0002 µM
GI50 [18]: 6.76 µM
GI50 [19]: 0.0129 µM
GI50 [20]: 6.92 µM
GI50 [21]: 14.8 µM
GI50 [22]: 7.24 µM
GI50 [23]: 5.5 µM
Ki [24]: 0.0013 µM
GI50 [25]: 0.0692 µM
viability at 0.01 µM [26]: 60%
GI50 [27]: 2.95 µM
GI50 [28]: 10.7 µM
Activity [29]: 90%
GI50 [30]: 6.76 µM
GI50 [31]: 6.46 µM
Ki [32]: 0.0015 µM
GI50 [33]: 5.5 µM
GI50 [34]: 11.2 µM
GI50 [35]: 0.145 µM
GI50 [36]: 7.24 µM
Ki [37]: 0.001 µM
GI50 [38]: 2.75 µM
GI50 [39]: 6.17 µM
GI50 [40]: 5.62 µM
Activity [41]: 70%
Activity [42]: Toxic
viability at 0.1 µM [43]: 50%
GI50 [44]: 7.24 µM
GI50 [45]: 0.01 µM
GI50 [46]: 3.47 µM
GI50 [47]: 4.57 µM
Activity [48]: 14.3%
GI50 [49]: 10.2 µM
GI50 [50]: 12.3 µM
viability at 1 µM [51]: 50%
Ki [52]: 0.00018 µM
GI50 [53]: 9.77 µM
GI50 [54]: 3.47 µM
GI50 [55]: < 0.01 µM
GI50 [56]: 2.51 µM
